{"source": "paper PMC6214120", "about": "(International Journal of Molecular Sciences, 2018)", "key": {"chicken": {"test_system": "chicken", "experiment": "In vivo experiments with BCRP inhibitor Ko143 in chicken", "details": "in vivo experiments with Ko143 as additional BCRP inhibitor were unsuccessful"}, "[1]": {"experiment": "Pharmacokinetic studies of FFC in broilers", "format": "in vivo, Arbor Acres (AA) broilers", "details": "for bioavailability: read-out: F (absolute bioavailability); for AUC(0-t): read-out: AUC0~12h; for half-life: read-out: T1/2β (converted)", "experimental": "Ten 4-week and fifteen 8-week old AA broilers were used in this study and divided into five groups (5 birds in each group) as follows: Group I, 4-week old birds given FFC orally with a single dose of 20 mg/kg through crop tube gavage; group II, 8-week old birds given FFC orally with a single dose of 20 mg/kg through crop tube gavage; group III, 4-week old birds given FFC intravenously with a single dose of 10 mg/kg through the left brachialis vein; group IV, 8-week old birds given FFC intravenously with a single dose of 10 mg/kg through the left brachialis vein; group V, 8-week old birds orally given FFC (20 mg/kg) plus gefitinib (100 mg/kg, an inhibitor of BCRP) through crop tube gavage. Groups I, II, III, and IV were used to study the influence of age-dependent BCRP expression on FFC pharmacokinetics. The data from group II and group V were used to further analyze the effects of BCRP on FFC pharmacokinetics. […] Plasma was rapidly harvested by centrifugation at 5000 g for 5 min and stored at −80 °C until assayed. The extraction procedures and HPLC method were modified from the previous method. All plasma samples were analyzed on Thermo fisher U3000 high-performance liquid chromatography (HPLC) system. […] The acetonitrile supernatants were combined, evaporated under nitrogen at 40 °C, and dissolved in 0.2 mL of mobile phase, from which 20 μL was injected into HPLC system. The mobile phase consisted of a mixture of acetonitrile-water at a ratio of 20:80 (v/v). The detection conditions as the follows: wavelength at 224 nm, the column temperature at 35 °C and the flow rate at 1 mL/min. The calibration samples were prepared with eight different FFC concentrations using blank plasma. […] The average of inter- and intra-day precision (RSD) was <11%. […] Pharmacokinetic calculations were performed on each individual set of data using 3p97 practical pharmacokinetic software (Version 97, Chinese Pharmacologic Association, Beijing, China). Least-squares fits were determined for both biexponential (two-compartment model) and single exponential (one-compartment model) equations. The number of exponential terms required to describe the plasma concentration-time data for each boiler chickens was determined by application of Akaike’s Information Criterion (AIC Method). The area under the concentration-time curve (AUC) was calculated according to the linear trapezoidal method."}, "chicken BCRP": {"test_system": "chicken BCRP", "experiment": "Bidirectional transport assay in MDCK-chAbcg2 cells", "format": "in vitro ADME", "details": "MDCK-chAbcg2 vs MDCK, gefitinib as inhibitor", "experimental": "(§1) Wild-type MDCK cells and MDCK-chAbcg2 cells were seeded into Transwell® inserts (Catalogue number 3460, Corning Coster Corp. Acton, MA, USA) in 12-well plates at a density of 1 × 10^5 cells/insert and cultured for 5 days. The cell layer integrity was tested before transport by measuring transepithelial electrical resistance (TEER) across the apical (AP) and the basolateral (BL) sides of the cell line using a Millicell-ERS epithelial voltometer (Millipore, Burlington, MA, USA). The bidirectional transport experiments were conducted with the transport buffers containing either FFC (50 μM) or the mixture of FFC and gefitinib instead of the blank medium or the medium contain gefitinib (100 μM). After the cells were incubated with transport buffers for 4 h, the samples collected from the receiving sides were submitted for HPLC analysis. The TEER values of each monolayer were checked again at the end of the transport studies to ensure the integrities of cell monolayers during the whole transport analysis. According to FDA guidance a drug with a net efflux ratio that is over 2.0 will be considered as a potential substrate of an efflux pump. The apparent permeability coefficients (Papp) across cell monolayer were calculated as follows: Papp = (dQ/dt)/(A × C0), where A is the area of filter membrane, C0 is the initial concentration of the tested drug, dQ is the amount of transported drug, and dt is time elapsed. The efflux ratio (ER) was calculated from (Papp B→A)/(Papp A→B) and the net efflux ratio (NER) was calculated from […]. Each group has 5 cell monolayers, and the experiment was repeated three times."}, "chicken BCRP (Abcg2)": {"test_system": "chicken BCRP (Abcg2)", "experiment": "Bidirectional transport assay in MDCK-chAbcg2 cells", "format": "in vitro ADME", "details": "chicken, FFC 50 μM, 4 h", "experimental": "as §1"}, "[2]": {"experiment": "Bidirectional transport assay in wild-type MDCK cells", "format": "in vitro ADME, canine", "details": "dog, FFC 50 μM", "experimental": "as §1"}, "[3]": {"details": "Arbor Acres (AA) broiler, plasma, iv, 10 mg/kg, intravenous 10 mg/kg, 4-week old broilers"}, "[4]": {"details": "Arbor Acres (AA) broiler, plasma, iv, 10 mg/kg, intravenous 10 mg/kg, 8-week old broilers"}, "[5]": {"details": "Arbor Acres (AA) broiler, plasma, po, 20 mg/kg, oral 20 mg/kg, 4-week old broilers"}, "[6]": {"details": "Arbor Acres (AA) broiler, plasma, po, 20 mg/kg, oral 20 mg/kg, 8-week old broilers"}, "[7]": {"details": "Arbor Acres (AA) broiler, plasma, po, 20 mg/kg, with gefitinib 100 mg/kg (BCRP inhibitor, co-dosed orally), oral 20 mg/kg, 8-week old broilers administered gefitinib (100 mg/kg)"}, "[8]": {"details": "oral 20 mg/kg, 4-week old broilers"}, "[9]": {"details": "oral 20 mg/kg, 4 week-old broilers"}, "[10]": {"details": "oral 20 mg/kg, 8-week old broilers"}, "[11]": {"details": "oral 20 mg/kg, 8-week old broilers administered gefitinib (100 mg/kg)"}, "[12]": {"details": "oral 20 mg/kg, 8-week old broilers with oral gefitinib 100 mg/kg"}, "[13]": {"details": "oral 20 mg/kg, 8 week old broilers"}, "[14]": {"details": "MDCK-chAbcg2, with gefitinib (100 μM)"}, "[15]": {"details": "MDCK-chAbcg2, without gefitinib"}}, "note": "Read-outs that look alike come from different tables or passages of the source.", "data": [{"smiles": "COc1ccc2c3c([nH]c2c1)[C@H](CC(C)C)N1C(=O)[C@H](CCC(=O)OC(C)(C)C)NC(=O)[C@@H]1C3", "note": "[Ko143]", "values": [{"measurement": "Toxicity in chicken", "setting": "chicken", "value": "observed toxicity in chicken"}]}, {"smiles": "CS(=O)(=O)c1ccc([C@@H](O)[C@@H](CF)NC(=O)C(Cl)Cl)cc1", "note": "[florfenicol, Florfenicol]", "values": [{"measurement": "bioavailability", "setting": "[1]; Arbor Acres (AA) broiler, chicken, plasma, po, with gefitinib 100 mg/kg (BCRP inhibitor, co-dosed orally), oral 20 mg/kg, 8-week old broilers administered gefitinib (100 mg/kg)", "value": 78.4, "unit": "%"}, {"measurement": "AUC(0-t)", "setting": "[1]; [3]", "value": "5410 ± 310", "unit": "ng·h/mL"}, {"measurement": "half-life", "setting": "[1]; [3]", "value": "60 ± 51", "unit": "min"}, {"measurement": "Vd", "setting": "[1]; Arbor Acres (AA) broiler, plasma, iv, 10 mg/kg, intravenous 10 mg/kg, 4-week old broilers, read-out: Vd", "value": "1.51 ± 0.62", "unit": "L/kg"}, {"measurement": "AUC(0-t)", "setting": "[1]; [4]", "value": "5110 ± 1890", "unit": "ng·h/mL"}, {"measurement": "half-life", "setting": "[1]; [4]", "value": "47.4 ± 10.8", "unit": "min"}, {"measurement": "Vd", "setting": "[1]; Arbor Acres (AA) broiler, plasma, iv, 10 mg/kg, intravenous 10 mg/kg, 8-week old broilers, read-out: Vd", "value": "1.18 ± 0.29", "unit": "L/kg"}, {"measurement": "bioavailability", "setting": "[1]; Arbor Acres (AA) broiler, plasma, po, 20 mg/kg, oral 20 mg/kg vs i.v. 10 mg/kg, 4-week old broilers", "value": 79.3, "unit": "%"}, {"measurement": "bioavailability", "setting": "[1]; Arbor Acres (AA) broiler, plasma, po, 20 mg/kg, oral 20 mg/kg vs i.v. 10 mg/kg, 8-week old broilers", "value": 48, "unit": "%"}, {"measurement": "Cmax", "setting": "[1]; [5]", "value": "3870 ± 960", "unit": "ng/mL"}, {"measurement": "Tmax", "setting": "[1]; [5]", "value": "37.8 ± 12.6", "unit": "min"}, {"measurement": "AUC(0-t)", "setting": "[1]; [5]", "value": "8580 ± 1880", "unit": "ng·h/mL"}, {"measurement": "half-life", "setting": "[1]; [5]", "value": "196 ± 72", "unit": "min"}, {"measurement": "Cmax", "setting": "[1]; [6]", "value": "2930 ± 1070", "unit": "ng/mL"}, {"measurement": "Tmax", "setting": "[1]; [6]", "value": "37.2 ± 11.4", "unit": "min"}, {"measurement": "AUC(0-t)", "setting": "[1]; [6]", "value": "4910 ± 1560", "unit": "ng·h/mL"}, {"measurement": "half-life", "setting": "[1]; [6]", "value": "56.4 ± 10.2", "unit": "min"}, {"measurement": "Cmax", "setting": "[1]; [7]", "value": "1730 ± 480", "unit": "ng/mL"}, {"measurement": "Tmax", "setting": "[1]; [7]", "value": "120 ± 84.6", "unit": "min"}, {"measurement": "AUC(0-t)", "setting": "[1]; [7]", "value": "8010 ± 1650", "unit": "ng·h/mL"}, {"measurement": "bioavailability", "setting": "[1]; [7]", "value": 78.4, "unit": "%"}, {"measurement": "half-life", "setting": "[1]; [7]", "value": "210 ± 201", "unit": "min"}, {"measurement": "ClB", "setting": "[1]; intravenous 10 mg/kg, 4-week old broilers", "value": "27.5 ± 9", "unit": "mL/min/kg"}, {"measurement": "ClB", "setting": "[1]; intravenous 10 mg/kg, 8-week old broilers", "value": "35.7 ± 11.2", "unit": "mL/min/kg"}, {"measurement": "Decrease of bioavailability in 8-week old broilers compared with 4-week old birds", "setting": "[1]; oral 20 mg/kg", "value": 31.3, "unit": "%"}, {"measurement": "ClB", "setting": "[1]; [8]", "value": "40.5 ± 8.83", "unit": "mL/min/kg"}, {"measurement": "Vd", "setting": "[1]; [8]", "value": "3.42 ± 1.18", "unit": "L/kg"}, {"measurement": "AUC0~12h", "setting": "[1]; [9]", "value": "8.58 (µg/mL)·h"}, {"measurement": "Cl", "setting": "[1]; [9]", "value": "2.43 mg/kg/h/(μg/mL)"}, {"measurement": "Vd", "setting": "[1]; [9]", "value": "3.42 (mg/kg)/(µg/mL)"}, {"measurement": "ClB", "setting": "[1]; [10]", "value": "73.8 ± 24.3", "unit": "mL/min/kg"}, {"measurement": "Vd", "setting": "[1]; [10]", "value": "5.64 ± 0.60", "unit": "L/kg"}, {"measurement": "ClB", "setting": "[1]; [11]", "value": "42.8 ± 8.67", "unit": "mL/min/kg"}, {"measurement": "Vd", "setting": "[1]; [11]", "value": "7.39 ± 2.98", "unit": "L/kg"}, {"measurement": "AUC0~12h", "setting": "[1]; [12]", "value": "8.01 (µg/mL)·h"}, {"measurement": "Cl", "setting": "[1]; [12]", "value": "2.57 mg/kg/h/(μg/mL)"}, {"measurement": "AUC0~12h", "setting": "[1]; [13]", "value": "4.91 (µg/mL)·h"}, {"measurement": "Cl", "setting": "[1]; [13]", "value": "4.43 mg/kg/h/(μg/mL)"}, {"measurement": "Vd", "setting": "[1]; [13]", "value": "5.64 (mg/kg)/(µg/mL)"}, {"measurement": "Substrate status for chicken BCRP (FDA criteria: NER over 2.0 and efflux reversed by inhibitor)", "setting": "chicken BCRP", "value": "substrate of chicken BCRP"}, {"measurement": "Papp A→B at 4 h, 50 μM", "setting": "chicken BCRP (Abcg2); [14]", "value": "0.37 ± 0.02", "unit": "×10⁻⁶ cm/s"}, {"measurement": "Papp B→A at 4 h, 50 μM", "setting": "chicken BCRP (Abcg2); [14]", "value": "0.43 ± 0.01", "unit": "×10⁻⁶ cm/s"}, {"measurement": "Papp A→B at 4 h, 50 μM", "setting": "chicken BCRP (Abcg2); [15]", "value": "0.28 ± 0.01", "unit": "×10⁻⁶ cm/s"}, {"measurement": "Papp B→A at 4 h, 50 μM", "setting": "chicken BCRP (Abcg2); [15]", "value": "0.68 ± 0.04", "unit": "×10⁻⁶ cm/s"}, {"measurement": "Papp A→B at 4 h, 50 μM", "setting": "[2]; with gefitinib (100 μM)", "value": "0.37 ± 0.03", "unit": "×10⁻⁶ cm/s"}, {"measurement": "Papp B→A at 4 h, 50 μM", "setting": "[2]; with gefitinib (100 μM)", "value": "0.39 ± 0.01", "unit": "×10⁻⁶ cm/s"}, {"measurement": "Papp A→B at 4 h, 50 μM", "setting": "[2]; without gefitinib", "value": "0.4 ± 0.04", "unit": "×10⁻⁶ cm/s"}, {"measurement": "Papp B→A at 4 h, 50 μM", "setting": "[2]; without gefitinib", "value": "0.4 ± 0.01", "unit": "×10⁻⁶ cm/s"}]}]}
